In ChEMBL document CHEMBL1151471, “Vancomycin-resistant Staphylococcus aureus isolates associated with Inc18-like vanA plasmids in Michigan” (2008):
≈ marks a conversion by molar mass, not a printed value.

What was measured:
Type in all cases: functional
Enterococcus faecalis [1] = test: Antibacterial activity against Enterococcus faecalis AIS2007003 isolated from patients rectum by broth microdilution method
Staphylococcus aureus [2] = test: Antibacterial activity against vancomycin-resistant Staphylococcus aureus HIP15178 isolated from patients surgical wound by broth microdilution method
Staphylococcus aureus [3] = test: Antibacterial activity against vancomycin-resistant Staphylococcus aureus AIS2006032 isolated from patients foot wound by broth microdilution method
Enterococcus avium = test: Antibacterial activity against Enterococcus avium AIS2007004 isolated from patients rectum by broth microdilution method
Enterococcus faecalis [4] = test: Antibacterial activity against Enterococcus faecalis HIP15179 coisolated with vancomycin-resistant Staphylococcus aureus by broth microdilution method
Staphylococcus aureus [5] = test: Antibacterial activity against vancomycin-resistant Staphylococcus aureus AIS2006049 isolated from patients arm wound by broth microdilution method
Staphylococcus aureus [6] = test: Antibacterial activity against vancomycin-resistant Staphylococcus aureus HIP14300 isolated from patients foot wound by broth microdilution method
Enterococcus faecalis [7] = test: Antibacterial activity against Enterococcus faecalis HIP14333 isolated from patients rectum by broth microdilution method

| Compound | MIC (Enterococcus faecalis [1]) [µg/mL] | MIC (Staphylococcus aureus [2]) [µg/mL] | MIC (Staphylococcus aureus [3]) [µg/mL] | MIC (Enterococcus avium) [µg/mL] | MIC (Enterococcus faecalis [4]) [µg/mL] | MIC (Staphylococcus aureus [5]) [µg/mL] | MIC (Staphylococcus aureus [6]) [µg/mL] | MIC (Enterococcus faecalis [7]) [µg/mL] |
| --- | --- | --- | --- | --- | --- | --- | --- | --- |
| CCCCCCCCCC(=O)N[C@@H](Cc1c[nH]c2ccccc12)C(=O)N[C@H](CC(N)=O)C(=O)N[C@@H](CC(=O)O)C(=O)N[C@@H]1C(=O)NCC(=O)N[C@@H](CCCN)C(=O)N[C@@H](CC(=O)O)C(=O)N[C@H](C)C(=O)N[C@@H](CC(=O)O)C(=O)NCC(=O)N[C@H](CO)C(=O)N[C@@H]([C@H](C)CC(=O)O)C(=O)N[C@@H](CC(=O)c2ccccc2N)C(=O)O[C@@H]1C | 2 (≈ 1.23 µM) | ≤ 0.5 | 1 (≈ 0.617 µM) | 1 (≈ 0.617 µM) | 1 (≈ 0.617 µM) | 2 (≈ 1.23 µM) | ≤ 0.5 |  |
| CO[C@H]1/C=C/O[C@@]2(C)Oc3c(C)c(O)c4c(O)c(c(/C=N/N5CCN(C)CC5)c(O)c4c3C2=O)NC(=O)/C(C)=C\C=C\[C@H](C)[C@H](O)[C@@H](C)[C@@H](O)[C@@H](C)[C@H](OC(C)=O)[C@@H]1C [RIFAMPIN] | 1 (≈ 1.22 µM) | ≤ 0.5 | ≤ 0.5 | 1 (≈ 1.22 µM) | 2 (≈ 2.43 µM) | ≤ 0.5 | ≤ 0.5 | 1 (≈ 1.22 µM) |
| C[C@H]1COc2c(N3CCN(C)CC3)c(F)cc3c(=O)c(C(=O)O)cn1c23.C[C@H]1COc2c(N3CCN(C)CC3)c(F)cc3c(=O)c(C(=O)O)cn1c23.O [LEVOFLOXACIN] | > 8 | > 16 | > 16 | 8 | 8 | 8 | > 16 | > 8 |
| CC(=O)NC[C@H]1CN(c2ccc(N3CCOCC3)c(F)c2)C(=O)O1 [LINEZOLID] |  |  |  | 2 (≈ 5.93 µM) |  |  |  |  |
| CN[C@H](CC(C)C)C(=O)N[C@H]1C(=O)N[C@@H](CC(N)=O)C(=O)N[C@H]2C(=O)N[C@H]3C(=O)N[C@H](C(=O)N[C@H](C(=O)O)c4cc(O)cc(O)c4-c4cc3ccc4O)[C@H](O)c3ccc(c(Cl)c3)Oc3cc2cc(c3O[C@@H]2O[C@H](CO)[C@@H](O)[C@H](O)[C@H]2O[C@H]2C[C@](C)(N)[C@H](O)[C@H](C)O2)Oc2ccc(cc2Cl)[C@H]1O [VANCOMYCIN] | > 512 | 512 (≈ 353 µM) | 1020 (≈ 707 µM) | 256 (≈ 177 µM) | 512 (≈ 353 µM) | 512 (≈ 353 µM) | 256 (≈ 177 µM) | 1020 (≈ 707 µM) |
| CCC[C@@H]1C[C@@H](C(=O)N[C@@H]([C@H]2O[C@H](SC)[C@H](O)[C@@H](O)[C@H]2O)[C@H](C)Cl)N(C)C1 [CLINDAMYCIN] |  | > 16 | > 16 |  |  | > 16 | > 16 |  |
| CC[C@H]1OC(=O)[C@H](C)[C@@H](O[C@H]2C[C@@](C)(OC)[C@@H](O)[C@H](C)O2)[C@H](C)[C@@H](O[C@@H]2O[C@H](C)C[C@H](N(C)C)[C@H]2O)[C@](C)(O)C[C@@H](C)C(=O)[C@H](C)[C@@H](O)[C@]1(C)O [ERYTHROMYCIN] | > 8 | > 8 | > 8 | > 8 | > 8 | > 8 | > 8 | > 8 |
| Cc1onc(-c2ccccc2)c1C(=O)N[C@@H]1C(=O)N2[C@@H]1SC(C)(C)[C@@H]2C(=O)O [OXACILLIN] |  | > 16 | > 16 |  |  | > 16 | > 16 |  |
| CN[C@@H]1[C@H](O[C@H]2[C@H](O[C@H]3[C@H](O)[C@@H](O)[C@H](N=C(N)N)[C@@H](O)[C@@H]3N=C(N)N)O[C@@H](C)[C@]2(O)C=O)O[C@@H](CO)[C@H](O)[C@H]1O [STREPTOMYCIN] | > 1000 |  |  | ≤ 1000 | > 1000 |  |  | ≤ 1000 |
| C[C@H]1c2cccc(O)c2C(=O)C2=C(O)[C@]3(O)C(=O)C(C(N)=O)=C(O)[C@@H](N(C)C)[C@@H]3[C@@H](O)[C@@H]21.O [DOXYCYCLINE] | 4 | ≤ 0.5 | 1 | 8 | ≤ 2 | ≤ 1 | ≤ 0.25 | 8 |
| GENTAMICIN | > 500 | < 2 | < 2 | > 500 | > 500 | < 2 | < 2 | > 500 |
